According to ChEMBL document CHEMBL2439965, “Dialkylimidazole inhibitors of Trypanosoma cruzi sterol 14α-demethylase as anti-Chagas disease agents” (Bioorg Med Chem Lett, 2013):

Legend:
Trypanosoma cruzi = test: microbe, parasite or virus in culture; conditions: Tulahuen, NIH3T3, 168 h
Description: Antitrypanosomal activity against Trypanosoma cruzi Tulahuen infected in 3T3 cells after 7 days by beta-galactosidase assay

physchem = conditions: octanol/water
Description: Lipophilicity, log P of the compound

[1] = Cytotoxicity against human CRL8155 cells; format: cell-based

Structure (SMILES)	EC50 (Trypanosoma cruzi) [nM]	logP (physchem)	IC50 [1] [nM]
Nc1cc(-c2ccccc2)ccc1Cn1cncc1CNc1ccc(-c2nc3ccccc3s2)c(-c2ccccc2)c1	1	7.6	–
CC1CCN(CCOc2ccc(NCc3cncn3Cc3ccc(-c4ccccc4)cc3)cc2-c2ccccc2)CC1	97.4	5.9	4470
Nc1cc(-c2ccccc2)ccc1Cn1cncc1CNc1ccc(F)c(F)c1	3.2	4	–
Nc1cc(-c2ccccc2)ccc1Cn1cncc1CNc1ccc(F)cc1	1.1	3.8	–
Cc1ccc(NCc2cncn2Cc2ccc(-c3ccccc3)cc2N)cc1-c1c(F)cccc1F	0.4	6.2	> 5000
Nc1cc(-c2ccccc2)ccc1Cn1cncc1CNc1ccc(OCCN2CCOCC2)c(-c2ccc(Cl)cc2)c1	1.5	–	–
CC1CCN(CCOc2ccc(NCc3cncn3Cc3ccc(-c4ccccn4)cc3N)cc2-c2ccccc2)CC1	5.8	5.1	5270
Nc1cc(Cl)ccc1Cn1cncc1CNc1ccc(-c2nc3ccccc3s2)c(-c2ccccc2)c1	1.4	–	–
COc1ccc(Cn2cncc2CNc2ccc(F)c(-c3ccccc3)c2)c(N)c1	14.5	4.7	–
Nc1cc(Cl)ccc1Cn1cncc1CNc1ccc(F)c(-c2ccccc2)c1	12.8	4.5	–
Nc1ccccc1Cn1cncc1CNc1ccc(F)c(-c2ccccc2)c1	233	3.8	–
Nc1cc(N2CCOCC2)ccc1Cn1cncc1CNc1ccc(F)c(F)c1	358	2.2	–
Cc1cc(NCc2cnc(C)n2Cc2ccc(-c3ccccc3)cc2N)ccc1F	> 1000	4.5	–
Cc1ncc(CNc2ccc(F)c(Cl)c2)n1Cc1ccc(-c2ccccc2)cc1N	> 1000	4.6	–
Cc1ncc(CNc2ccc(F)cc2)n1Cc1ccc(-c2ccccc2)cc1N	> 1000	4	–
Fc1ccc(NCc2cncn2Cc2cccc3cc[nH]c23)cc1-c1ccccc1	333	4.8	–
Clc1ccc(NCc2cncn2Cc2cccc3cc[nH]c23)cc1-c1ccccc1	333	5.2	–
CCN1CCC(Cn2cncc2CNc2ccc(Cl)c(-c3ccccc3)c2)CC1	> 1000	4.3	17400
Clc1ccc(NCc2cncn2CC2CCNCC2)cc1-c1ccccc1	> 1000	3.5	–
COc1ccc(NCc2cncn2Cc2ccccc2)nc1-c1ccccc1	686	4.2	–
COc1ccc(NCc2cncn2Cc2ccc(-c3ccccc3)cc2)nc1-c1ccccc1	12.5	5.8	–
Nc1cc(-c2ccccc2)ccc1Cn1cncc1CNc1ccc(Cl)c(-c2ccccc2N2CCCC2)c1	87	6.5	–
Nc1cc(-c2ccccc2)ccc1Cn1cncc1CNc1ccc(Cl)c(-c2ccccc2N2CCOCC2)c1	24.5	5.9	–
Nc1cc(-c2ccccc2)ccc1Cn1cncc1CNc1ccc(Cl)c(-c2ccccc2N2CCCCC2)c1	20.8	4.7	–
Nc1ccc(-c2cc(NCc3cncn3Cc3ccc(-c4ccccc4)cc3N)ccc2Cl)cc1	0.3	5.1	12900
Nc1cc(-c2ccccc2)ccc1Cn1cncc1CNc1ccc(Cl)c(Cl)c1	9	5	–

Structure (SMILES)	EC50 (Trypanosoma cruzi) [nM]	logP (physchem)	IC50 [1] [nM]
Nc1cc(-c2ccccc2)ccc1Cn1cncc1CNc1ccc(Cl)c(N2CCCCC2)c1	1.1	5.3	> 5000
Nc1cc(-c2ccccc2)ccc1Cn1cncc1CNc1ccc(Cl)c(-n2ccnc2)c1	5	3.5	14600
Nc1cc(-c2ccccc2)ccc1Cn1cncc1CNc1ccc(Cl)c(-n2cccc2)c1	3.8	4.8	–
Cc1cc(NCc2cncn2Cc2ccc(-c3ccccc3)cc2N)ccc1Cl	0.6	4.4	12900
Nc1cc(-c2ccccc2)ccc1Cn1cncc1CNc1ccc(Cl)cc1	2.1	4.3	–
Nc1cc(-c2ccccc2)ccc1Cn1cncc1CNc1ccc(F)c(-c2c(F)cccc2F)c1	0.4	5.8	–
Nc1cc(-c2ccccc2)ccc1Cn1cncc1CNc1ccc(F)c(Cl)c1	1.2	4.3	–
Nc1cc(-c2ccccc2)ccc1Cn1cncc1CNc1ccc(F)c(-c2ccccc2)c1	0.8	5.5	18800
Cc1cc(NCc2cncn2Cc2ccc(F)cc2F)ccc1F	272	3.8	–
Fc1ccc(Cn2cncc2CNc2ccc(F)c(F)c2)c(F)c1	212	3.5	–
Fc1ccc(NCc2cncn2Cc2ccc(F)cc2F)cc1	354	3.3	–
Clc1ccc(NCc2cncn2Cc2ccc(-c3ccccc3)cc2Cl)cc1	83.2	5.7	–
Cc1cc(NCc2cncn2Cc2ccc(-c3ccccc3)cc2Cl)ccc1F	26	5.8	–
Fc1ccc(NCc2cncn2Cc2ccc(-c3ccccc3)cc2Cl)cc1Cl	48.7	5.9	–
Fc1ccc(NCc2cncn2Cc2ccc(-c3ccccc3)cc2Cl)cc1F	38.1	5.4	–
Fc1ccc(NCc2cncn2Cc2ccc(-c3ccccc3)cc2)cc1-c1c(F)cccc1F	11.7	6.6	17500
COc1cc(-c2ccccc2)ccc1Cn1cncc1CNc1ccc(Cl)c(-c2ccccc2)c1	35.1	6.6	–
Oc1cc(-c2ccccc2)ccc1Cn1cncc1CNc1ccc(Cl)c(-c2ccccc2)c1	5.9	6.5	21500
Oc1cc(-c2ccccc2)ccc1Cn1cncc1CNc1ccc(-c2nc3ccccc3s2)c(-c2ccccc2)c1	89.3	8	–
O=C(O)c1cc(-c2ccccc2)ccc1Cn1cncc1CNc1ccc(-c2nc3ccccc3s2)c(-c2ccccc2)c1	> 1000	7.2	–
COc1cc(-c2ccccc2)ccc1Cn1cncc1CNc1ccc(-c2nc3ccccc3s2)c(-c2ccccc2)c1	27.2	8.2	–
Cc1ncc(CNc2ccc(F)c(F)c2)n1Cc1ccc(-c2ccccc2)cc1N	> 1000	4.1	–
c1ccc(-c2ccc(Cn3cncc3CNc3ccc(OCCN4CCOCC4)c(-c4ccccc4)c3)cc2)cc1	35.2	5.9	–
c1ccc(-c2ccc(Cn3cncc3CNc3ccc(NCCN4CCOCC4)c(-c4ccccc4)c3)cc2)cc1	115	5.9	–
c1ccc(-c2ccc(Cn3cncc3CNc3ccc(OCCN4CCCCC4)c(-c4ccccc4)c3)cc2)cc1	317	6.9	–
c1ccc(-c2ccc(Cn3cncc3CNc3ccc(NCCN4CCCCC4)c(-c4ccccc4)c3)cc2)cc1	194	6.6	10700

Structure (SMILES)	EC50 (Trypanosoma cruzi) [nM]	logP (physchem)	IC50 [1] [nM]
Fc1cc(-c2ccccc2)ccc1Cn1cncc1CNc1ccc(F)c(-c2ccccc2)c1	12	6.5	–
Fc1ccc(NCc2cncn2Cc2ccc(-c3ccccc3)cc2F)cc1	70.2	4.8	–
Cc1cc(NCc2cncn2Cc2ccc(-c3ccccc3)cc2F)ccc1F	53	5.3	–
Fc1ccc(NCc2cncn2Cc2ccc(-c3ccccc3)cc2F)cc1Cl	49	5.4	–
Fc1ccc(NCc2cncn2Cc2ccc(-c3ccccc3)cc2F)cc1F	46	5	–
Cc1cccc(-c2ccc(Cn3cncc3CNc3ccc(-c4nc5ccccc5s4)c(-c4ccccc4)c3)cc2)c1	5.4	8.9	–
Oc1ccc(-c2cc(NCc3cncn3Cc3ccc(-c4ccccc4)cc3)ccc2-c2nc3ccccc3s2)cc1	11	8.1	20000
COc1ccc(-c2cc(NCc3cncn3Cc3ccc(-c4ccccc4)cc3)ccc2-c2nc3ccccc3s2)cc1	10	8.2	–
Nc1ccc(-c2cc(NCc3cncn3Cc3ccc(-c4ccccc4)cc3)ccc2-c2nc3ccccc3s2)cc1	1.6	7.6	27500
N#Cc1ccc(-c2cc(NCc3cncn3Cc3ccc(-c4ccccc4)cc3)ccc2-c2nc3ccccc3s2)cc1	32	8.2	–
Cc1ccc(NCc2cncn2Cc2ccc(-c3ccccc3)cc2)cc1-c1c(F)cccc1F	36.6	7	–
Clc1ccc(NCc2cncn2Cc2ccc(-c3ccccc3)cc2)cc1-c1ccncc1	27.2	5.6	–
Clc1ccc(NCc2cncn2Cc2ccc(-c3ccccc3)cc2)cc1-n1cccc1	30.4	5.6	–
Clc1ccc(NCc2cncn2Cc2ccc(-c3ccccc3)cc2)cc1N1CCCCC1	53.6	6.1	–
Clc1ccc(NCc2cncn2Cc2ccc(-c3ccccc3)cc2)cc1-c1cccnc1	64.8	5.6	–
c1ccc(-c2cc(NCc3cncn3Cc3ccc(-c4ccco4)cc3)ccc2-c2nc3ccccc3s2)cc1	21.2	7.4	–
c1ccc(-c2cc(NCc3cncn3Cc3ccc(-c4ccccn4)cc3)ccc2-c2nc3ccccc3s2)cc1	19.3	7.5	–
c1ccc(-c2cc(NCc3cncn3Cc3ccc(-c4cccs4)cc3)ccc2-c2nc3ccccc3s2)cc1	11.1	8.2	–
Nc1ccccc1-c1ccc(Cn2cncc2CNc2ccc(-c3nc4ccccc4s3)c(-c3ccccc3)c2)cc1	75.4	7.6	–
Oc1ccccc1-c1ccc(Cn2cncc2CNc2ccc(-c3nc4ccccc4s3)c(-c3ccccc3)c2)cc1	123	8.1	–
Cc1ccc(-c2ccc(Cn3cncc3CNc3ccc(-c4nc5ccccc5s4)c(-c4ccccc4)c3)cc2)cc1	50	8.9	–
Clc1ccc(-c2ccc(Cn3cncc3CNc3ccc(-c4nc5ccccc5s4)c(-c4ccccc4)c3)cc2)cc1	48.5	9	–
c1ccc(-c2ccc(Cn3cncc3CNc3ccc(-c4nc5ccccc5s4)c(-c4ccccc4)c3)cc2)cc1	20	8.4	–
CC[C@@H]([C@H](C)O)n1ncn(-c2ccc(N3CCN(c4ccc(OC[C@@H]5CO[C@@](Cn6cncn6)(c6ccc(F)cc6F)C5)cc4)CC3)cc2)c1=O [POSACONAZOLE]	< 1	–	–
